From ChEMBL document CHEMBL6134890, “Terminally Symmetric β-Turn Peptides for Multidrug-Resistant Bacterial Infections” (J Med Chem, 2025)
Converted amounts (≈) assume the structure as drawn. Bridge positions count the residues as written; N and C are the ends. Square brackets hold non-standard residues; d marks the D form. Peptide text beside a SMILES is read from it. * marks the point of attachment. X1 = CC[C@H](C)CCCCC(=O)*; Dab = NCC[C@H](N)C(=O)O

Key:
[1] = test system: Staphylococcus epidermidis; assay: Antimicrobial activity against multi-drug resistant Staphylococcus epidermidis assessed as reduction in bacterial growth by broth dilution method; assay type: functional
[2] = test system: Staphylococcus aureus; assay: Antimicrobial activity against multi-drug resistant Staphylococcus aureus assessed as reduction in bacterial growth by broth dilution method; assay type: functional
[3] = test system: Klebsiella pneumoniae; assay: Antimicrobial activity against multi-drug resistant Klebsiella pneumoniae assessed as reduction in bacterial growth by broth dilution method; assay type: functional
[4] = test system: Escherichia coli; assay: Antimicrobial activity against Escherichia coli ATCC 25922 assessed as reduction in bacterial growth by broth dilution method; assay type: functional
[5] = test system: Acinetobacter baumannii; assay: Antimicrobial activity against multi-drug resistant Acinetobacter baumannii assessed as reduction in bacterial growth by broth dilution method; assay type: functional
[6] = test system: Escherichia coli; assay: Antimicrobial activity against multi-drug resistant Escherichia coli assessed as reduction in bacterial growth by broth dilution method; assay type: functional
[7] = test system: Staphylococcus aureus; assay: Antimicrobial activity against Staphylococcus aureus ATCC 25923 assessed as reduction in bacterial growth by broth dilution method; assay type: functional
[8] = test system: Enterococcus faecalis; assay: Antimicrobial activity against multi-drug resistant Enterococcus faecalis assessed as reduction in bacterial growth by broth dilution method; assay type: functional
[9] = Hemolytic activity in human Red blood cell assessed as hemolysis incubated for 1 hrs by microplate reader based analysis; assay type: toxicity; settings: erythrocyte
[10] = test system: BEAS-2B; assay: Cytotoxicity against human BEAS-2B cells at 2 to 256 uM measured after 24 hrs by CCK-8 method; assay type: toxicity, cell-based; settings: dose 2-256 µM
[11] = test system: L02; assay: Cytotoxicity against human LO2 cells at 2 to 256 uM measured after 24 hrs by CCK-8 method; assay type: toxicity, cell-based; settings: l02, 24 h, dose 2-256 µM
[12] = test system: HEK-293T; assay: Cytotoxicity against HEK293T cells at 2 to 256 uM measured after 24 hrs by CCK-8 method; assay type: toxicity, cell-based; settings: human, dose 2-256 µM
[13] = test system: Staphylococcus aureus; assay: Drug resistance, ratio of MIC for Staphylococcus aureus ATCC 25923 after 15 passages exposure to MIC for Staphylococcus aureus ATCC 25923 after first exposure; assay type: functional
[14] = test system: Escherichia coli; assay: Drug resistance, ratio of MIC for Escherichia coli ATCC 25922 after 15 passages exposure to MIC for Escherichia coli ATCC 25922 after first exposure; assay type: functional

Row | SMILES | MIC [1] [µM] | MIC [2] [µM] | MIC [3] [µM] | MIC [4] [µM] | MIC [5] [µM] | MIC [6] [µM] | MIC [7] [µM] | MIC [8] [µM] | HC10 [9] [µM] | Activity [10] | Activity [11] | Activity [12] | fold change (FC) [13] | fold change (FC) [14]
1 | NCCCC[C@H](NC(=O)[C@H](Cc1c[nH]c2ccccc12)NC(=O)[C@H](CCCCN)NC(=O)[C@H](Cc1c[nH]c2ccccc12)NC(=O)[C@H](CCCCN)NC(=O)[C@@H]1CCCN1C(=O)[C@H](Cc1c[nH]c2ccccc12)NC(=O)[C@H](Cc1c[nH]c2ccccc12)NC(=O)[C@H](Cc1c[nH]c2ccccc12)NC(=O)[C@@H]1CCCN1C(=O)[C@H](CCCCN)NC(=O)[C@H](Cc1c[nH]c2ccccc12)NC(=O)[C@H](CCCCN)NC(=O)[C@H](Cc1c[nH]c2ccccc12)NC(=O)[C@@H](N)CCCCN)C(N)=O (H-KWKWKPWWWPKWKWK-NH2) | 4 (≈ 9.14 µg/mL) | 4 (≈ 9.14 µg/mL) | 4 (≈ 9.14 µg/mL) | 4 (≈ 9.14 µg/mL) | 4 (≈ 9.14 µg/mL) | 4 (≈ 9.14 µg/mL) | 4 (≈ 9.14 µg/mL) | 4 (≈ 9.14 µg/mL) | 64.03 |  |  |  |  | 
2 | NCCCC[C@H](NC(=O)[C@H](Cc1c[nH]c2ccccc12)NC(=O)[C@H](CCCCN)NC(=O)[C@H](Cc1c[nH]c2ccccc12)NC(=O)[C@@H]1CCCN1C(=O)[C@H](Cc1c[nH]c2ccccc12)NC(=O)[C@H](Cc1c[nH]c2ccccc12)NC(=O)[C@H](Cc1c[nH]c2ccccc12)NC(=O)[C@@H]1CCCN1C(=O)[C@H](Cc1c[nH]c2ccccc12)NC(=O)[C@H](CCCCN)NC(=O)[C@H](Cc1c[nH]c2ccccc12)NC(=O)[C@@H](N)CCCCN)C(N)=O (H-KWKWPWWWPWKWK-NH2) | 2 (≈ 4.05 µg/mL) | 2 (≈ 4.05 µg/mL) | 16 (≈ 32.4 µg/mL) | 8 (≈ 16.2 µg/mL) | 4 (≈ 8.11 µg/mL) | 4 (≈ 8.11 µg/mL) | 2 (≈ 4.05 µg/mL) | 2 (≈ 4.05 µg/mL) | 10.37 |  |  |  |  | 
3 | NCCCC[C@H](NC(=O)[C@H](Cc1c[nH]c2ccccc12)NC(=O)[C@H](CCCCN)NC(=O)[C@H](Cc1ccccc1)NC(=O)[C@@H]1CCCN1C(=O)[C@H](Cc1c[nH]c2ccccc12)NC(=O)[C@H](Cc1c[nH]c2ccccc12)NC(=O)[C@H](Cc1c[nH]c2ccccc12)NC(=O)[C@@H]1CCCN1C(=O)[C@H](Cc1ccccc1)NC(=O)[C@H](CCCCN)NC(=O)[C@H](Cc1c[nH]c2ccccc12)NC(=O)[C@H](CCCCN)NC(=O)[C@@H](N)Cc1c[nH]c2ccccc12)C(=O)N[C@@H](Cc1c[nH]c2ccccc12)C(N)=O (H-WKWKFPWWWPFKWKW-NH2) | 16 (≈ 37.1 µg/mL) | 16 (≈ 37.1 µg/mL) | 256 (≈ 594 µg/mL) | 128 (≈ 297 µg/mL) | 16 (≈ 37.1 µg/mL) | 128 (≈ 297 µg/mL) | 8 (≈ 18.6 µg/mL) | 16 (≈ 37.1 µg/mL) | 6.82 |  |  |  |  | 
4 | NCCCC[C@H](NC(=O)[C@H](Cc1c[nH]c2ccccc12)NC(=O)[C@H](CCCCN)NC(=O)[C@@H]1CCCN1C(=O)[C@H](Cc1c[nH]c2ccccc12)NC(=O)[C@H](Cc1c[nH]c2ccccc12)NC(=O)[C@H](Cc1c[nH]c2ccccc12)NC(=O)[C@@H]1CCCN1C(=O)[C@H](CCCCN)NC(=O)[C@H](Cc1c[nH]c2ccccc12)NC(=O)[C@H](CCCCN)NC(=O)[C@@H](N)Cc1c[nH]c2ccccc12)C(=O)N[C@@H](Cc1c[nH]c2ccccc12)C(N)=O (H-WKWKPWWWPKWKW-NH2) | 2 (≈ 4.05 µg/mL) | 4 (≈ 8.11 µg/mL) | 8 (≈ 16.2 µg/mL) | 8 (≈ 16.2 µg/mL) | 8 (≈ 16.2 µg/mL) | 8 (≈ 16.2 µg/mL) | 4 (≈ 8.11 µg/mL) | 2 (≈ 4.05 µg/mL) | 28.58 |  |  |  |  | 
5 | CC(C)CCCCC(=O)N[C@@H](CCN)C(=O)N[C@H](C(=O)N[C@@H](CCN)C(=O)N[C@H]1CCNC(=O)[C@H]([C@@H](C)O)NC(=O)[C@H](CCN)NC(=O)[C@H](CCN)NC(=O)[C@H](CC(C)C)NC(=O)[C@@H](Cc2ccccc2)NC(=O)[C@H](CCN)NC1=O)[C@@H](C)O.CC[C@H](C)CCCCC(=O)N[C@@H](CCN)C(=O)N[C@H](C(=O)N[C@@H](CCN)C(=O)N[C@H]1CCNC(=O)[C@H]([C@@H](C)O)NC(=O)[C@H](CCN)NC(=O)[C@H](CCN)NC(=O)[C@H](CC(C)C)NC(=O)[C@@H](Cc2ccccc2)NC(=O)[C@H](CCN)NC1=O)[C@@H](C)O (X1-[Dab]T[Dab][Dab][Dab][dF]L[Dab][Dab]T; lactam 4-C) |  |  |  |  |  |  |  |  | > 256 | Non-toxic | Non-toxic | Non-toxic |  | 
6 | CC1(C)S[C@@H]2[C@H](NC(=O)[C@H](N)c3ccc(O)cc3)C(=O)N2[C@H]1C(=O)O [AMOXICILLIN] | 128 (≈ 46.8 µg/mL) | 64 (≈ 23.4 µg/mL) | > 256 | 4 (≈ 1.46 µg/mL) | 128 (≈ 46.8 µg/mL) | > 256 | 0.25 (≈ 0.0914 µg/mL) | 64 (≈ 23.4 µg/mL) |  |  |  |  | 64 | 8
